Experimental data as given in US20090233940A1, “Insecticide Compositions” (priority 2008, published 2009).

Experiments:
Cycad Asian Scale = assay: Killing of scale insects / exterminating Cycad Asian Scale populations (general statements); conditions: in vivo
[1] = can be used outdoors as well as indoors; cited from earlier work

## CCOC(=O)CC(SP(=S)(OC)OC)C(=O)OCC (centres unmarked) [Malathion, malathion]
Cycad Asian Scale
  usefulness in exterminating Cycad Asian Scale populations: particularly useful

## CC(COc1ccc(Oc2ccccc2)cc1)Oc1ccccn1 (centres unmarked) [Nylar]
[1]
  photostability: photostable
